# US11109593B2, “Isoxazolin-5-one derivative and herbicide containing same as active ingredient” (HOKKO CHEMICAL INDUSTRY CO., LTD., priority 2017, dated 2021)
# Key:
# Type in all cases: in vivo
# Echinochloa crus-galli [1] = assay: Test Example 3: herbicidal effect test by treatment of dry field farming soil (one day after seeding); conditions: 120 g/10a active ingredient, evaluated 14 days after treatment
# In short: (§1)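 Alluvial dry-field soil in pots, top 1 cm mixed with 20 seeds per weed species. One day after seeding, the water-diluted emulsion was sprayed onto the soil surface at 100 L per 10 ares (120 g active ingredient per 10 ares). Duplicate pots; herbicidal rate (%) from plant dry weight versus untreated, 14 days after treatment.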
# southern crabgrass [2] = assay: as above; conditions: 120 g/10a active ingredient, evaluated 14 days after treatment
# In short: as §1
# Chenopodium album [3] = assay: as above; conditions: 120 g/10a active ingredient, evaluated 14 days after treatment
# In short: as §1
# Amaranthus viridis [4] = assay: as above; conditions: 120 g/10a active ingredient, evaluated 14 days after treatment
# In short: as §1
# Echinochloa crus-galli [5] = assay: Test Example 2: herbicidal effect test by treatment during growing period in paddy rice cultivation (seven days after seeding); conditions: 120 g/10a active ingredient, assessed 14 days after treatment, dry weight vs untreated area
# In short: (§2)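 Seeds sown 0–1 cm deep in puddled, fertilised paddy soil with about 3 cm standing water in a glass greenhouse. Diluted emulsion dropped into the water seven days after seeding at 120 g active ingredient per 10 ares. Herbicidal rate (%) from mean dry weight vs untreated, duplicate, 14 days after treatment.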
# [6] = system: broad leaf weeds (Lindernia pyxidaria and Monochoria vaginalis); assay: as above; conditions: 120 g/10a active ingredient, assessed 14 days after treatment, dry weight vs untreated area
# In short: as §2
# Scirpus juncoides [7] = assay: as above; conditions: 120 g/10a active ingredient, assessed 14 days after treatment, dry weight vs untreated area
# In short: as §2
# Echinochloa crus-galli [8] = assay: Test Example 4: herbicidal effect test by treatment of leave and stem in dry field farming (seven days after seeding); conditions: 120 g/10a active ingredient; emulsion sprayed seven days after seeding; evaluated 14 days after treatment
# In short: (§3)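 Weeds were seeded at 20 seeds per species into the top 1 cm of alluvial upland soil in pots, then sprayed 7 days after seeding with water-diluted emulsifiable concentrate at 100 L/10 a, giving 120 g active ingredient/10 a. Duplicate pots; herbicidal rate (%) was 14 days post-treatment, from dry weight versus untreated.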
# southern crabgrass [9] = assay: as above; conditions: 120 g/10a active ingredient; emulsion sprayed seven days after seeding; evaluated 14 days after treatment
# In short: as §3
# Chenopodium album [10] = assay: as above; conditions: 120 g/10a active ingredient; emulsion sprayed seven days after seeding; evaluated 14 days after treatment
# In short: as §3
# Amaranthus viridis [11] = assay: as above; conditions: 120 g/10a active ingredient; emulsion sprayed seven days after seeding; evaluated 14 days after treatment
# In short: as §3
# Echinochloa crus-galli [12] = assay: Test Example 1: herbicidal effect test by treatment of rice paddy soil (immediately after seeding); conditions: 120 g/10a active ingredient, dry weight vs untreated area, 14 days after treatment
# In short: (§4)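 Paddy soil in pots with compound fertilizer, puddled; 30 seeds per species sown at 0–1 cm, flooded ~3 cm, greenhouse. Water-diluted emulsions dropped onto water immediately after seeding at 120 g active ingredient per 10 ares, duplicate. Herbicidal rate (%) from plant dry weight versus untreated, 14 days after treatment.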
# [13] = system: broad leaf weeds (Lindernia pyxidaria and Monochoria vaginalis); assay: as above; conditions: 120 g/10a active ingredient, dry weight vs untreated area, 14 days after treatment
# In short: as §4
# Scirpus juncoides [14] = assay: as above; conditions: 120 g/10a active ingredient, dry weight vs untreated area, 14 days after treatment
# In short: as §4
SMILES,"herbicidal rate, Echinochloa crus-galli (Echinochloa crus-galli [1])","herbicidal rate, southern crabgrass (southern crabgrass [2])","herbicidal rate, Chenopodium album (Chenopodium album [3])","herbicidal rate, Amaranthus viridis (Amaranthus viridis [4])",Herbicidal rate (%) Echinochloa crus-galli (Echinochloa crus-galli [5]),Herbicidal rate (%) Lindernia pyxidaria [6],Herbicidal rate (%) Monochoria vaginalis [6],Herbicidal rate (%) Scirpus juncoides (Scirpus juncoides [7]),"herbicidal effect (herbicidal rate), Echinochloa crus-galli (Echinochloa crus-galli [8])","herbicidal effect (herbicidal rate), southern crabgrass (southern crabgrass [9])","herbicidal effect (herbicidal rate), Chenopodium album (Chenopodium album [10])","herbicidal effect (herbicidal rate), Amaranthus viridis (Amaranthus viridis [11])",Herbicidal rate (%) Echinochloa crus-galli (Echinochloa crus-galli [12]),Herbicidal rate (%) Lindernia pyxidaria [13],Herbicidal rate (%) Monochoria vaginalis [13],Herbicidal rate (%) Scirpus juncoides (Scirpus juncoides [14])
CCC(C)n1oc(=O)c(Cc2ccccc2N(C(=O)OCC(C)C)S(=O)(=O)C(F)(F)F)c1C (centres unmarked) [Compound 1-669],90%,90%,90%,90%,90%,90%,90%,90%,90%,90%,40%,40%,90%,90%,90%,90%
CCC(C)Cn1oc(=O)c(Cc2ccccc2N(C(=O)OCC(C)C)S(=O)(=O)C(F)(F)F)c1C (centres unmarked) [Compound 1-674],80%,50%,40%,40%,100%,70%,90%,90%,70%,80%,50%,60%,100%,90%,90%,90%
COCC(C)n1oc(=O)c(Cc2ccccc2N(C(=O)OCC(C)C)S(=O)(=O)C(F)(F)F)c1C (centres unmarked) [Compound 1-675],90%,90%,90%,90%,90%,90%,90%,90%,90%,90%,40%,40%,90%,90%,90%,90%
CSCCn1oc(=O)c(Cc2ccccc2N(C(=O)OCC(C)C)S(=O)(=O)C(F)(F)F)c1C [Compound 1-676],90%,90%,90%,90%,90%,90%,90%,90%,90%,90%,40%,40%,90%,90%,90%,90%
Cc1c(Cc2ccccc2N(C(=O)OCC(C)C)S(=O)(=O)C(F)(F)F)c(=O)on1C(C)c1ccccc1 (centres unmarked) [Compound 1-678],90%,90%,90%,90%,90%,90%,90%,90%,90%,90%,40%,40%,90%,90%,90%,90%
